According to US20260102377A1, “COMPOSITIONS AND METHODS FOR TREATING MYASTHENIA GRAVIS” (priority 2022, published 2026):
“Also recorded” adds a separate entry of the source. Read-outs that look alike come from different tables or passages of the source.

How the values were obtained:
EAMG rats = assay: Force and EMG in sedated EAMG animals (triceps surae, sciatic nerve stimulation); format: in vivo, rat
[1] = test system: patients with myasthenia gravis; assay: Phase IIA clinical trial (Part C): Quantitative Myasthenia Gravis test; format: in vivo, human
Description: (§1) For each subject, the study consisted of three study periods during which subjects received either a single dose of NMD670 400 mg, NMD670 1200 mg, or placebo with a 7-day washout period between visits. On these study visits, subjects were asked to refrain from their regular dose of pyridostigmine (if applicable) from 14 h before dosing until after the last pharmacodynamic measurement on Day 1 (see Table 13: Visit and Assessment Schedule). The cross-over design allowed intra-individual comparison of drug effects versus placebo (see FIG. 16). A balanced design was applied to control for first-order carry-over effects.
(§2) Part C was a double-blinded, placebo-controlled, three-way cross-over comparison of two single oral doses of NMD670 in men and women with stable symptomatic myasthenia gravis. 12 patients were enrolled. For each subject, the study consisted of three study periods during which subjects received either a single dose of NMD670 or placebo. On these study visits, subjects were asked to refrain from their regular dose of pyridostigmine (if applicable) for 14 hours before dosing. Single doses were administered in randomized order (400 mg free acid, 1200 mg free acid, or placebo p.o.), with a 7-day washout period between visits (FIG. 16). NMD670/placebo was administered with 240 ml of still water.
The Quantitative Myasthenia Gravis (QMG) total score (Barohn et al., Ann N YAcad Sci 1998, 841:769-72) is a validated clinical measure of sentinel muscle groups developed by the Myasthenia Gravis Foundation of America and the current clinical gold standard recommended for all prospective studies in MG. The QMG test is a physician-rated test using 13 assessments (see table 1), including facial strength, swallowing, respiratory, grip strength, and duration of time that limbs can be maintained in outstretched positions. Each of the 13 items is scored from 0 (none) to 3 (severe).
The total score can range from 0 to 39.

[2] = test system: patients with myasthenia gravis; assay: Phase IIA clinical trial (Part C): hand grip strength (Jamar dynamometer); format: in vivo, human
Description: as §1, §2
Hand grip was evaluated with a Jamar hand grip dynamometer. An analysis of hand grip strength, an item of QMG score and therefore not an independent variable for the total score, was also performed (table 18).

[3] = Phase IIA clinical trial (Part C): pharmacokinetics in patients; format: in vivo; conditions: both sexes, human, plasma; for AUC(0-inf): read-out: AUC0-infinity (Mean ± SD, h · ng/mL); for Cmax: read-out: Cmax (Mean ± SD, ng/mL); for half-life: read-out: T1/2 (median, hr) (converted); for Tmax: read-out: Tmax (median, hr)
Description: • Collect blood (3 mL recommended) onto wet ice (K2EDTA tubes) • Immediately cool blood on crushed wet ice for maximum of 30 minutes • Harvest plasma as quickly as possible using refrigerated centrifuge by centrifuging at 2000 g for 10 minutes at 4° C. • Keep plasma on wet ice and immediately stabilise with 1:1 (v/v) addition of Water: Orthophosphoric Acid (100:2 v/v) prepared using ≥85% orthophosphoric acid and deionised water (e.g. 750 μL plasma+750 μL stabiliser). • Mix sample thoroughly. • Keep the stabilised plasma on wet ice during subsequent steps. • Divide the stabilised plasma into 5×250 μL aliquots in plastic cryotubes. • Store aliquots at nominal −70° C./−80° C. promptly.
• 1. Thaw frozen calibration standards, QC samples, blank matrix and study samples on wet ice. • 2. Vortex-mix all samples thoroughly. • 3. On wet ice aliquot 150 μL of calibration standards, QC samples, study samples, and blanks into a 2 mL 96-well plate. For the reagent blank add the same volume of Water. • 4. On wet ice add 25 μL of Methanol:Water (50:50) to wells containing blanks and the same volume of ISTD intermediate solution to all other wells. • 5. On wet ice add 125 μL of Water to each well. Cap plate and vortex-mix (˜5 minutes, 1000 rpm). • 6. Centrifuge plate (˜3000 g, 3 minutes, room temperature). • 7. Condition SPE plate (Waters Oasis HLB pElution) with 250 μL Methanol. • 8. Condition SPE plate with 250 μL of Water. • 9. Load 250 μL of the sample onto the SPE plate (aspirate from the rim of the cone to avoid any debris collected at the bottom of the well). Pass through using minimum pressure. • 10. Wash SPE plate with 250 μL of Water. • 11. Wash SPE plate with 250 μL of Methanol:Water (5:95). Briefly increase pressure for one minute to ensure sorbent is partially dried. • 12. Elute from SPE plate into a 1.2 mL 96-well plate using 30 μL of Methanol. Stand for one minute then pass through using absolute minimum pressure. • 13. Elute again with another 30 μL of Methanol, collecting into the same plate. Briefly increase pressure for one minute to complete the elution. • 14. Add 125 μL of Ammonium Formate 10 mM (aq):Formic Acid (100:0.3) to each well. Cap plate and vortex mix (˜1 minute, ≥1200 rpm). • 15. Store plate refrigerated prior to analysis.
as §1, §2

[4] = 400 mg group, 3-hour measurements
[5] = 1200 mg group, 3- and 5-hour measurements
[6] = single doses, 12 patients with MG

C[C@H](Oc1ccc(Br)cc1-c1ccon1)C(=O)O [NMD670, (2S)-2-[4-bromo-2-(1,2-oxazol-3-yl)phenoxy]propanoic acid]
Nerve-stimulated force and EMG amplitude in triceps surae (EAMG rats; EAMG rat score 2, 40 mg per kg, 20 minutes after administration, 80 Hz for 1 second): rapid restoration of force and EMG amplitude
Restoration of muscle force / EMG (EAMG rats; EAMG rats, single per oral doses from 2 to 120 mg/kg): rapid and dose-dependent restoration of muscle force; also recorded: rapid and dose-dependent restoration of both EMG and force
Patients achieving a 2-point or larger improvement in QMG total score [1, 4]: 6 of 12
QMG responder rate (2-point or larger improvement from baseline compared to placebo) [1, 4]: 50%
Patients achieving a 2-point or larger improvement in QMG total score ([1]; 400 mg group, 5-hour): 5 of 12
QMG responder rate (2-point or larger improvement from baseline compared to placebo) ([1]; 400 mg group, 5-hour): 42%
QMG total score, LSM change over placebo (given as positive improvement) ([1]; 400 mg treatment group, 3-hour timepoint, p=0.12): 1.3 points
QMG total score, Arithmetic Mean change (given as positive improvement) ([1]; 400 mg treatment group, 5-hour timepoint): 2.1 points
QMG total score, LSM change over placebo (given as positive improvement) ([1]; 400 mg treatment group, 5-hour timepoint, p=0.02): 1.7 points
QMG total score, CFB over placebo, Arithmetic mean ([1]; 400 mg versus placebo, 3-hour): −1.6 points
QMG total score, CFB over placebo, LSM ([1]; 400 mg versus placebo, 3-hour, p = 0.12): −1.2 points
QMG total score, CFB over placebo, Arithmetic mean ([1]; 400 mg versus placebo, 5-hour): −2.1 points
QMG total score, CFB over placebo, LSM ([1]; 400 mg versus placebo, 5-hour, p = 0.02): −1.7 points
QMG total score, CFB over placebo, LSM ([1]; 400 mg versus placebo, Overall, p = 0.03, single oral dose, 12 MG patients): −1.5 points
Patients achieving a 2-point or larger improvement in QMG total score [1, 5]: 5 of 12
QMG responder rate (2-point or larger improvement from baseline compared to placebo) [1, 5]: 42%
QMG total score, Least Mean Square change improvement from baseline over placebo ([1]; 1200 mg group, 3-hour timepoint): 0.9 points
QMG total score, Least Mean Square change improvement from baseline over placebo ([1]; 1200 mg group, 5-hour timepoint): 1.1 points
QMG total score, Least Mean Square change improvement from baseline over placebo ([1]; 1200 mg group, overall, non-statistically significant): 1.0 points
QMG total score, CFB over placebo, Arithmetic mean ([1]; 1200 mg versus placebo, 3-hour): −1.2 points
QMG total score, CFB over placebo, LSM ([1]; 1200 mg versus placebo, 3-hour, p = 0.25): −0.9 points
QMG total score, CFB over placebo, Arithmetic mean ([1]; 1200 mg versus placebo, 5-hour): −1.5 points
QMG total score, CFB over placebo, LSM ([1]; 1200 mg versus placebo, 5-hour, p = 0.14): −1.1 points
QMG total score, CFB over placebo, LSM ([1]; 1200 mg versus placebo, Overall, p = 0.14): −1 points
QMG individual items: double vision, ptosis and dysarthria compared to placebo ([1]; both 400 mg and 1200 mg doses, non-statistically significant): improved
Patients meeting responder criterion (QMG) [1, 6]: up to 50%
QMG total Score after single doses [1, 6]: clinically significant improvements
QMG total score, LSM change from baseline improvement over placebo (given as positive improvement) ([1]; worded 'the NMD670 treatment arms', p=0.03 (Table 17: 400 mg overall)): 1.5 points
Right-hand grip strength, CFB over placebo, Arithmetic mean ([2]; 400 mg versus placebo, 3-hour): 2.4 kg
Right-hand grip strength, CFB over placebo, LSM ([2]; 400 mg versus placebo, 3-hour, p = 0.05): 2.4 kg
Right-hand grip strength, CFB over placebo, Arithmetic mean ([2]; 400 mg versus placebo, 5-hour): 0.4 kg
Right-hand grip strength, CFB over placebo, LSM ([2]; 400 mg versus placebo, 5-hour, p = 0.76): 0.4 kg
Right-hand grip strength, CFB over placebo, LSM ([2]; 400 mg versus placebo, Overall, p = 0.19): 1.4 kg
Right-hand grip strength, CFB over placebo, Arithmetic mean ([2]; 1200 mg versus placebo, 3-hour): 2.9 kg
Right-hand grip strength, CFB over placebo, LSM ([2]; 1200 mg versus placebo, 3-hour, p = 0.02): 2.9 kg
Right-hand grip strength, CFB over placebo, Arithmetic mean ([2]; 1200 mg versus placebo, 5-hour): 2.8 kg
Right-hand grip strength, CFB over placebo, LSM ([2]; 1200 mg versus placebo, 5-hour, p = 0.03): 2.8 kg
Right-hand grip strength, CFB over placebo, LSM ([2]; 1200 mg versus placebo, Overall, p = 0.01): 2.8 kg
Change from baseline over placebo in hand grip strength, left and right hand ([2]; both doses (400 mg, 1200 mg), statistically significant for the right hand): improved; also recorded: numerically positive
AUC(0-inf) ([3]; 400 mg single oral dose): 93.7 µg·h/mL
Cmax ([3]; 400 mg single oral dose): 21700 ng/mL
half-life ([3]; 400 mg single oral dose): 5.43 h
Tmax ([3]; 400 mg single oral dose): 2 h
AUC(0-inf) ([3]; 1200 mg single oral dose): 378 µg·h/mL
Cmax ([3]; 1200 mg single oral dose): 76700 ng/mL
half-life ([3]; 1200 mg single oral dose): 5.06 h
Tmax ([3]; 1200 mg single oral dose): 2 h
